Data from US11897851B2, “Heterocyclic GLP-1 agonists” (Gasherbrum Bio, Inc., priority 2021, dated 2024).

Each compound was assayed against T1, GLP-1 Receptor (Homo sapiens, UniProt P43220) (assay: GLP-1R agonist cAMP stimulation assay (HEK293/GLP1R/CRE-LUC cells, Cisbio cAMP dynamic 2 kit)). Details: HEK293/CRE-Luc cell line stably expressing the GLP-1 Receptor; 1000 cells/well; 30 min at 37° C.; 0.5 mM IBMX, 0.1% BSA; read-out: GLP1R cAMP Stimulation DR: EC50.
T1 construct: host or cells: HEK293/GLP1R/CRE-LUC (HEK293/CRE-Luc stably expressing the GLP-1 receptor)
Assay type: cell-based
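Also: compounds tested in half-log serial dilution, cAMP detected with cAMP-d2 and anti-cAMP cryptate antibody reagents after 1 h at room temperature.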

T1 sequence (P43220 24-463, species assumed): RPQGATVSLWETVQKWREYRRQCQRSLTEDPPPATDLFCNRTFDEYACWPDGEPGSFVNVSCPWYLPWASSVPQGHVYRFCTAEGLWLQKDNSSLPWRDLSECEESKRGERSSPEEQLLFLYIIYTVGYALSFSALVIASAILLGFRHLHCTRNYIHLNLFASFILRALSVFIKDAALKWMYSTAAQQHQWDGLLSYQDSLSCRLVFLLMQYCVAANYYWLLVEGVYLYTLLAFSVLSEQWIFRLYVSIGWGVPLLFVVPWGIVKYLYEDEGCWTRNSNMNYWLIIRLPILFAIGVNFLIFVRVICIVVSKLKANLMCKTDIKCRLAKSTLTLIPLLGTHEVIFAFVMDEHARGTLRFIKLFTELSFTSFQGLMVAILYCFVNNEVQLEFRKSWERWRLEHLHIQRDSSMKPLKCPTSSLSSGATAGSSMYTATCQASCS

Going from C/C(=C\c1cnc(CN2CCC(c3cccc4c3O[C@@](C)(c3ccc(Cl)cc3F)O4)CC2)n1C[C@@H]1CCO1)C(=O)O (single isomer, unassigned) [Compound 131a] to C/C(=C\c1cnc(CN2CCC(c3cccc4c3O[C@](C)(c3ccc(Cl)cc3F)O4)CC2)n1C[C@@H]1CCO1)C(=O)O (single isomer, unassigned) [Compound 131b], the EC50 rises from 0.099 nM to 8.7 nM (88-fold). The first is the more potent here.

Going from CC1(C)C[C@@H](Cn2c(/C=C/C(=O)O)cnc2CN2CCC(c3cccc4c3OC(C)(c3ccc(Cl)cc3F)O4)CC2)CO1 (single isomer, unassigned) [Compound 171a] to C[C@]1(c2ccc(Cl)cc2F)Oc2cccc(C3CCN(Cc4ncc(/C=C/C(=O)O)n4C[C@@H]4CCS4(=O)=O)CC3)c2O1 (single isomer, unassigned) [Compound 173a], the EC50 falls from 10 nM to 0.0069 nM (1400-fold).

Compared with C[C@]1(c2ccc(Cl)cc2F)Oc2cccc(C3CCN(Cc4ncc(/C=C/C(=O)O)n4C[C@H]4CCS4(=O)=O)CC3)c2O1 (single isomer, unassigned) [Compound 173b], O=C(O)/C=C/c1cnc(CN2CCC(c3cccc4c3OC[C@@H](c3ccc(Cl)cc3)O4)CC2)n1C[C@@H]1CCO1 [Compound 116a, (E)-3-(2-((4-((R)-2-(4-Chlorophenyl)-2,3-dihydrobenzo[b][1,4]dioxin-5-yl)piperidin-1-yl)methyl)-1-(((S)-oxetan-2-yl)methyl)-1H-imidazol-5-yl)acrylic acid] is 510-fold higher in EC50: 0.0014 nM for the first, 0.71 nM for the second. The first is the more potent here.

Compared with Cn1c(C(=O)O)cnc1CN1CCC(c2cccc(OCc3ccc(Cl)cc3F)n2)CC1 [Compound 101, 2-((4-(6-((4-chloro-2-fluorobenzyl)oxy)pyridin-2-yl)piperidin-1-yl)methyl)-1-methyl-1H-imidazole-5-carboxylic acid], Cn1c(/C=C/C(=O)O)cnc1CN1CCC(c2cccc(OCc3ccc(Cl)cc3F)n2)CC1 [Compound 104, (E)-3-(2-((4-(6-((4-chloro-2-fluorobenzyl)oxy)pyridin-2-yl)piperidin-1-yl)methyl)-1-methyl-1H-imidazol-5-yl)acrylic acid] is 66-fold lower in EC50: 227 nM for the first, 3.45 nM for the second. The second is the more potent here.

First: O=C(O)CCc1cnc(CN2CCC(c3cccc(OCc4ccc(Cl)cc4F)n3)CC2)n1C[C@@H]1CCO1 [Compound 102a, (S)-3-(2-((4-(6-((4-chloro-2-fluorobenzyl)oxy)pyridin-2-yl)piperidin-1-yl)methyl)-1-(oxetan-2-ylmethyl)-1H-imidazol-5-yl)propanoic acid]
Second: O=C(O)CCc1cnc(CN2CCC(c3cccc(OCc4ccc(Cl)cc4F)n3)CC2)n1CC1CCC1 [Compound 107]
The EC50 of the first is 2.8-fold lower: 1.6 nM for the first, 4.4 nM for the second. The first is the more potent here.

Going from O=C(O)/C=C/c1cnc(CN2CCC(c3cccc(OCc4ccc(Cl)cc4F)n3)CC2)n1C[C@@H]1CCO1 [Compound 103a, (S,E)-3-(2-((4-(6-((4-chloro-2-fluorobenzyl)oxy)pyridin-2-yl)piperidin-1-yl)methyl)-1-(oxetan-2-ylmethyl)-1H-imidazol-5-yl)acrylic acid] to COCCn1c(/C=C/C(=O)O)cnc1CN1CCC(c2cccc(OCc3ccc(Cl)cc3F)n2)CC1 [Compound 106, (E)-3-(2-((4-(6-((4-Chloro-2-fluorobenzyl)oxy)pyridin-2-yl)piperidin-1-yl)methyl)-1-(2-methoxyethyl)-1H-imidazol-5-yl)acrylic acid], the EC50 rises from 0.093 nM to 0.364 nM (3.9-fold).

First: Cn1c(-c2nn[nH]n2)cnc1CN1CCC(c2cccc(OCc3ccc(Cl)cc3F)n2)CC1 [Compound 105, 2-((4-chloro-2-fluorobenzyl)oxy)-6-(1-((1-methyl-5-(2H-tetrazol-5-yl)-1H-imidazol-2-yl)methyl)piperidin-4-yl)pyridine]
Second: Fc1cc(Cl)ccc1COc1cccc(C2CCN(Cc3ccc(-c4nn[nH]n4)cn3)CC2)n1 [Compound 127, 2-((4-(6-((4-chloro-2-fluorobenzyl)oxy)pyridin-2-yl)piperidin-1-yl)methyl)-5-(2H-tetrazol-5-yl)pyridine]
The EC50 of the first is 2.5-fold lower: 59.2 nM for the first, 147 nM for the second. The first is the more potent here.

Cn1c(C2CC2C(=O)O)cnc1CN1CCC(c2cccc(OCc3ccc(Cl)cc3F)n2)CC1 (stereo not shown) [Compound 108, 2-(2-((4-(6-((4-chloro-2-fluorobenzyl)oxy)pyridin-2-yl)piperidin-1-yl)methyl)-1-methyl-1H-imidazol-5-yl)cyclopropanecarboxylic acid] and COCCn1c(C2CC2C(=O)O)cnc1CN1CCC(c2cccc(OCc3ccc(Cl)cc3F)n2)CC1 (stereo not shown) [Compound 113] are within 1.5-fold of each other in EC50: 28.2 nM for the first, 34.9 nM for the second.

First: Cn1c(/C=C\C(=O)O)cnc1CN1CCC(c2cccc(OCc3ccc(Cl)cc3F)n2)CC1 [Compound 109, (Z)-3-(2-((4-(6-((4-chloro-2-fluorobenzyl)oxy)pyridin-2-yl)piperidin-1-yl)methyl)-1-methyl-1H-imidazol-5-yl)acrylic acid]
Second: C/C(=C\c1cnc(CN2CCC(c3cccc(OCc4ccc(Cl)cc4F)n3)CC2)n1C)C(=O)O [Compound 110, (E)-3-(2-((4-(6-((4-chloro-2-fluorobenzyl)oxy)pyridin-2-yl)piperidin-1-yl)methyl)-1-methyl-1H-imidazol-5-yl)-2-methylacrylic acid]
The EC50 of the first is 16-fold higher: 86.4 nM for the first, 5.5 nM for the second. The second is the more potent here.

First: Cn1c(/C=C/C(=O)O)nnc1CN1CCC(c2cccc(OCc3ccc(Cl)cc3F)n2)CC1 [Compound 112, (E)-3-(5-((4-(6-((4-chloro-2-fluorobenzyl)oxy)pyridin-2-yl)piperidin-1-yl)methyl)-4-methyl-4H-1,2,4-triazol-3-yl)acrylic acid]
Second: Cc1cc(/C=C/C(=O)O)cnc1CN1CCC(c2cccc(OCc3ccc(Cl)cc3F)n2)CC1 [Compound 120, (E)-3-(6-((4-(6-((4-chloro-2-fluorobenzyl)oxy)pyridin-2-yl)piperidin-1-yl)methyl)-5-methylpyridin-3-yl)acrylic acid]
The EC50 of the first is 49-fold lower: 2.01 nM for the first, 99 nM for the second.

First: O=C(O)C1CC1c1cnc(CN2CCC(c3cccc(OCc4ccc(Cl)cc4F)n3)CC2)n1C[C@@H]1CCO1 (stereo partly drawn) [Compound 114a, 2-(2-((4-(6-((4-chloro-2-fluorobenzyl)oxy)pyridin-2-yl)piperidin-1-yl)methyl)-1-(((S)-oxetan-2-yl)methyl)-1H-imidazol-5-yl)cyclopropane-1-carboxylic acid]
Second: O=C(O)C1CC1c1ccc(CN2CCC(c3cccc(OCc4ccc(Cl)cc4F)n3)CC2)nc1 (stereo not shown) [Compound 126, 2-(6-((4-(6-((4-chloro-2-fluorobenzyl)oxy)pyridin-2-yl)piperidin-1-yl)methyl)pyridin-3-yl)cyclopropane-1-carboxylic acid]
The EC50 of the first is 87-fold lower: 9.4 nM for the first, 817 nM for the second.

Going from C/C(=C\c1cnc(CN2CCC(c3cccc4c3OC[C@@H](c3ccc(Cl)cc3)O4)CC2)n1C[C@@H]1CCO1)C(=O)O [Compound 115a, (E)-3-(2-((4-((R)-2-(4-chlorophenyl)-2,3-dihydrobenzo[b][1,4]dioxin-5-yl)piperidin-1-yl)methyl)-1-(((S)-oxetan-2-yl)methyl)-1H-imidazol-5-yl)-2-methylacrylic acid] to O=C(O)/C=C/c1cnc(CN2CCC(c3cccc(OCc4ccc(Cl)cc4F)n3)CC2)c(CC2CCCO2)c1 (stereo not shown) [Compound 128, (E)-3-(6-((4-(6-((4-chloro-2-fluorobenzyl)oxy)pyridin-2-yl)piperidin-1-yl)methyl)-5-((tetrahydrofuran-2-yl)methyl)pyridin-3-yl)acrylic acid], the EC50 rises from 3.2 nM to 48.9 nM (15-fold). The first is the more potent here.

Compared with Cc1cc(CCC(=O)O)cnc1CN1CCC(c2cccc(OCc3ccc(Cl)cc3F)n2)CC1 [Compound 117], Cc1cc(C(=O)O)cnc1CN1CCC(c2cccc(OCc3ccc(Cl)cc3F)n2)CC1 [Compound 129, 6-((4-(6-((4-chloro-2-fluorobenzyl)oxy)pyridin-2-yl)piperidin-1-yl)methyl)-5-methylnicotinic acid] is 2.2-fold lower in EC50: 3300 nM for the first, 1500 nM for the second.

O=C(O)CCc1ccc(CN2CCC(c3cccc(OCc4ccc(Cl)cc4F)n3)CC2)nc1 [Compound 118, 3-(6-((4-(6-((4-chloro-2-fluorobenzyl)oxy)pyridin-2-yl)piperidin-1-yl)methyl)pyridin-3-yl)propanoic acid] and O=C(O)COc1ccc(CN2CCC(c3cccc(OCc4ccc(Cl)cc4F)n3)CC2)nc1 [Compound 119, 2-((6-((4-(6-((4-chloro-2-fluorobenzyl)oxy)pyridin-2-yl)piperidin-1-yl)methyl)pyridin-3-yl)oxy)acetic acid] cannot be ordered by EC50: over 1000 nM for the first, 1500 nM for the second.

O=C(O)CCc1ccc(CN2CCC(c3cccc(OCc4ccc(Cl)cc4F)n3)CC2)c(=O)[nH]1 [Compound 121, 3-(5-((4-(6-((4-chloro-2-fluorobenzyl)oxy)pyridin-2-yl)piperidin-1-yl)methyl)-6-oxo-1,6-dihydropyridin-2-yl)propanoic acid] and COc1nc(CCC(=O)O)ccc1CN1CCC(c2cccc(OCc3ccc(Cl)cc3F)n2)CC1 [Compound 124, 3-(5-((4-(6-((4-Chloro-2-fluorobenzyl)oxy)pyridin-2-yl)piperidin-1-yl)methyl)-6-methoxypyridin-2-yl)propanoic acid] cannot be ordered by EC50: over 1000 nM for the first, over 1000 nM for the second.

CC(C)(Oc1ccc(CN2CCC(c3cccc(OCc4ccc(Cl)cc4F)n3)CC2)nc1)C(=O)O [Compound 122, 2-((6-((4-(6-((4-chloro-2-fluorobenzyl)oxy)pyridin-2-yl)piperidin-1-yl)methyl)pyridin-3-yl)oxy)-2-methylpropanoic acid] and CC(Oc1ccc(CN2CCC(c3cccc(OCc4ccc(Cl)cc4F)n3)CC2)nc1)C(=O)O (stereo not shown) [Compound 125, 2-((6-((4-(6-((4-chloro-2-fluorobenzyl)oxy)pyridin-2-yl)piperidin-1-yl)methyl)pyridin-3-yl)oxy)propanoic acid] cannot be ordered by EC50: over 1000 nM for the first, over 1000 nM for the second.

Going from O=C(O)/C=C/c1ccc(CN2CCC(c3cccc(OCc4ccc(Cl)cc4F)n3)CC2)nc1 [Compound 123, (E)-3-(6-((4-(6-((4-chloro-2-fluorobenzyl)oxy)pyridin-2-yl)piperidin-1-yl)methyl)pyridin-3-yl)acrylic acid] to CC(Nc1ccc(CN2CCC(c3cccc(OCc4ccc(Cl)cc4F)n3)CC2)nc1)C(=O)O (stereo not shown) [Compound 130, 2-((6-((4-(6-((4-chloro-2-fluorobenzyl)oxy)pyridin-2-yl)piperidin-1-yl)methyl)pyridin-3-yl)amino)propanoic acid], the EC50 rises from 109 nM to over 1000 nM.
